Laboratory results from US20100222337A1, “FUNGICIDAL COMPOSITION CONTAINING CARBOXYLIC ACID AMIDE DERIVATIVE” (Ishihara Sangyo Kaisha, Ltd., priority 2005, published 2010).

Experiments:
Erysiphe graminis = details: 500 ppm, spray on wheat (Norin-61-go) at 1.5-leaf stage, preventive, 6 to 7 days after inoculation
Botrytis cinerea = assay: Test on preventive effect against kidney bean gray mold; format: in vivo; details: 500 ppm, spray on kidney bean (Taisyou Kintoki), 3 to 4 days after inoculation
sheath blight of rice = details: as disclosed in Patent Document 2 (JP-A-2005-179234); cited from earlier work

melting point [°C] | Compound | controlling index (area of sporulation) (Erysiphe graminis) | controlling index (length of lesions) (Botrytis cinerea) | effect against sheath blight of rice (sheath blight of rice)
 | CC(C)(NC(=O)c1ccncc1F)C(=O)c1ccc(-c2ccc(OC(F)(F)F)cc2)cc1 [Comparative Compound 1, 3-fluoro-N-(2-methyl-1-oxo-1-(4′-(trifluoromethoxy)biphenyl-4-yl)propan-2-yl)isonicotinamide] | 1 (Length of lesions, number of lesions or area of sporulation is at least 70% of non-treated plot) | 1 (Length of lesions, number of lesions or area of sporulation is at least 70% of non-treated plot) | effective
130 to 134 | Cc1c(C(=O)C(C)(C)NC(=O)c2ncccc2C(F)(F)F)ccc2c1OC(F)(F)O2 [compound No. 2-1, N-[2-[(2,2-difluoro-4-methyl-1,3-benzodioxolan-5-yl)carbonyl]-2-propyl]-3-trifluoromethyl-2-pyridinecarboxamide] |  |  | 
